# Molecular target: T1, SIRT1 (Homo sapiens, UniProt Q96EB6)
# T1 sequence (Q96EB6 1-747): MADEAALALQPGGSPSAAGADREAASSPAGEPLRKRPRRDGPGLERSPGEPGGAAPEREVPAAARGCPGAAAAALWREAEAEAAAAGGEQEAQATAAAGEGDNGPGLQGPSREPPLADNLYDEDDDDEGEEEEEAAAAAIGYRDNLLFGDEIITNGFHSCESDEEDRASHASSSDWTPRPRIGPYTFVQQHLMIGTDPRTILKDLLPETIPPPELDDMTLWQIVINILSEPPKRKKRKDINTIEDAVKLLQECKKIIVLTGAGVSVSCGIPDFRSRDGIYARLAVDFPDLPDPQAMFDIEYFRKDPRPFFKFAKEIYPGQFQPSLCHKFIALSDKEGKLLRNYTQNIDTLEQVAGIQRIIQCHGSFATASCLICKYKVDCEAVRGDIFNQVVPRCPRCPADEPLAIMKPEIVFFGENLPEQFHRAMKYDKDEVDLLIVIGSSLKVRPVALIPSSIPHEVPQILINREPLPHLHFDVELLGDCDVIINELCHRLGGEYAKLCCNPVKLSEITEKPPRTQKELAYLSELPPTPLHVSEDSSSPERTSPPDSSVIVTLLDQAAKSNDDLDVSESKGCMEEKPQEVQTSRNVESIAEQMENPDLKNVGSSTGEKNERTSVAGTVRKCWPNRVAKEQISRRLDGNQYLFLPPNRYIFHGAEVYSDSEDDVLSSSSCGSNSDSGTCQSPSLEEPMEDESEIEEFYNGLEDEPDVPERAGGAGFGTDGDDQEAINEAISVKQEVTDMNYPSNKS
# Test: Mass spectrometry based SIRT1 deacetylase activation assay (acetylated p53-derived peptide substrate)
# Type: biochemical
# Details: 0.5 μM peptide substrate, 120 μM βNAD+, 10 nM SIRT1, 25 minutes at 25° C.
EC1.5,Fold Act. (percent maximum fold activation),Compound
A (EC1.5<1.0 uM),A (Fold activation >200%),O=C(Nc1nccs1)c1cc(N2CCOCC2)cc2[nH]c(-c3ccc(F)cc3C(F)(F)F)nc12 [Compound 689]
A (EC1.5<1.0 uM),A (Fold activation >200%),O=C(Nc1ccccn1)c1cc(N2CCOCC2)cc2[nH]c(-c3ccc(F)cc3C(F)(F)F)nc12 [Compound 690]
A (EC1.5<1.0 uM),A (Fold activation >200%),O=C(Nc1cccnc1)c1cc(N2CCOCC2)cc2[nH]c(-c3ccc(F)cc3C(F)(F)F)nc12 [Compound 691]
A (EC1.5<1.0 uM),A (Fold activation >200%),O=C(Nc1cccnn1)c1cc(N2CCOCC2)cc2[nH]c(-c3ccc(F)cc3C(F)(F)F)nc12 [Compound 692]
B (EC1.5 1-25 uM),B (Fold Activation <200%),"O=C(Nc1nccs1)c1cncc2[nH]c(-c3ccc(F)cc3C(F)(F)F)nc12 [Compound 693, 2-(4-fluoro-2-trifluoromethyl-phenyl)-3H-imidazo[4,5-c]pyridine-7-carboxylic acid thiazol-2-ylamide]"
B (EC1.5 1-25 uM),B (Fold Activation <200%),O=C(Nc1ccccn1)c1cncc2[nH]c(-c3ccc(F)cc3C(F)(F)F)nc12 [Compound 694]
A (EC1.5<1.0 uM),A (Fold activation >200%),O=C(Nc1cccnc1)c1cncc2[nH]c(-c3ccc(F)cc3C(F)(F)F)nc12 [Compound 695]
B (EC1.5 1-25 uM),A (Fold activation >200%),O=C(Nc1cccnn1)c1cncc2[nH]c(-c3ccc(F)cc3C(F)(F)F)nc12 [Compound 696]
A (EC1.5<1.0 uM),A (Fold activation >200%),Cc1cnc(NC(=O)c2cncc3[nH]c(-c4ccc(F)cc4C(F)(F)F)nc23)s1 [Compound 697]
A (EC1.5<1.0 uM),A (Fold activation >200%),O=C(Nc1cccc(OC[C@H](O)CO)c1)c1cccc2[nH]c(-c3ccc(Cl)cc3C(F)F)nc12 [Compound 698]
A (EC1.5<1.0 uM),A (Fold activation >200%),O=C(Nc1cccc(OC[C@@H](O)CO)c1)c1cccc2[nH]c(-c3ccc(Cl)cc3C(F)F)nc12 [Compound 699]
A (EC1.5<1.0 uM),A (Fold activation >200%),O=C(Nc1cccc(OC[C@@H](O)CO)c1)c1cccc2[nH]c(-c3ccccc3C(F)F)nc12 [Compound 700]
A (EC1.5<1.0 uM),A (Fold activation >200%),O=C(Nc1nc(CN2CCOCC2)cs1)c1cccc2[nH]c(-c3cc(F)ccc3C(F)(F)F)nc12 [Compound 701]
A (EC1.5<1.0 uM),A (Fold activation >200%),O=C(Nc1nccs1)c1cccc2[nH]c(-c3cnccc3C(F)(F)F)nc12 [Compound 702]
A (EC1.5<1.0 uM),A (Fold activation >200%),"Cc1cnc(NC(=O)c2cccc3[nH]c(-c4cnccc4C(F)(F)F)nc23)s1 [Compound 703, N-(5-methylthiazol-2-yl)-2-(4-(trifluoromethyl)pyridin-3-yl)-1H-benzo[d]imidazole-4-carboxamide]"
A (EC1.5<1.0 uM),A (Fold activation >200%),O=C(Nc1ccccn1)c1cccc2[nH]c(-c3cnccc3C(F)(F)F)nc12 [Compound 704]
A (EC1.5<1.0 uM),A (Fold activation >200%),O=C(Nc1cccc(OCC(O)CO)c1)c1cccc2[nH]c(-c3ccc(F)cc3C(F)(F)F)nc12 (centres unmarked) [Compound 705]
A (EC1.5<1.0 uM),A (Fold activation >200%),CC1(C)CN(c2ccc(-c3nc4c(C(=O)Nc5nccs5)cccc4[nH]3)c(C(F)(F)F)c2)CCO1 [Compound 706]
A (EC1.5<1.0 uM),A (Fold activation >200%),CC1(C)CN(c2ccc(-c3nc4c(C(=O)Nc5ccccn5)cccc4[nH]3)c(C(F)(F)F)c2)CCO1 [Compound 707]
A (EC1.5<1.0 uM),A (Fold activation >200%),CC1(C)CN(c2ccc(C(F)(F)F)c(-c3nc4c(C(=O)Nc5nccs5)cccc4[nH]3)c2)CCO1 [Compound 708]

EC1.5,Fold Act. (percent maximum fold activation),Compound
A (EC1.5<1.0 uM),A (Fold activation >200%),CC1(C)CN(c2ccc(C(F)(F)F)c(-c3nc4c(C(=O)Nc5ccccn5)cccc4[nH]3)c2)CCO1 [Compound 709]
A (EC1.5<1.0 uM),A (Fold activation >200%),COCCN1CCN(c2cccc(-c3nc4c(C(=O)Nc5nccs5)cccc4[nH]3)c2)CC1 [Compound 710]
A (EC1.5<1.0 uM),A (Fold activation >200%),CC1(C)CN(CCOc2ccccc2-c2nc3c(C(=O)Nc4nccs4)cccc3[nH]2)CCO1 [Compound 711]
B (EC1.5 1-25 uM),B (Fold Activation <200%),CC1(C)CN(CCOc2ccccc2-c2nc3c(C(=O)Nc4ccccn4)cccc3[nH]2)CCO1 [Compound 712]
A (EC1.5<1.0 uM),A (Fold activation >200%),O=C(Nc1cccc(OC[C@H](O)CO)c1)c1cncc2[nH]c(-c3ccccc3C(F)F)nc12 [Compound 713]
A (EC1.5<1.0 uM),A (Fold activation >200%),O=C(Nc1cccc(OC[C@@H](O)CO)c1)c1cncc2[nH]c(-c3ccccc3C(F)F)nc12 [Compound 714]
A (EC1.5<1.0 uM),A (Fold activation >200%),O=C(Nc1cccc(OC[C@H](O)CO)c1)c1cncc2[nH]c(-c3ccc(Cl)cc3C(F)F)nc12 [Compound 715]
A (EC1.5<1.0 uM),A (Fold activation >200%),O=C(Nc1cccc(OC[C@@H](O)CO)c1)c1cncc2[nH]c(-c3ccc(Cl)cc3C(F)F)nc12 [Compound 716]
A (EC1.5<1.0 uM),A (Fold activation >200%),O=C(Nc1cccc(OC[C@H](O)CO)c1)c1cccc2[nH]c(-c3ccc(F)cc3C(F)F)nc12 [Compound 717]
A (EC1.5<1.0 uM),A (Fold activation >200%),O=C(Nc1cccc(OC[C@@H](O)CO)c1)c1cccc2[nH]c(-c3ccc(F)cc3C(F)F)nc12 [Compound 718]
A (EC1.5<1.0 uM),A (Fold activation >200%),O=C(Nc1cccc(OC[C@H](O)CO)c1)c1cccc2[nH]c(-c3cc(F)ccc3C(F)F)nc12 [Compound 719]
A (EC1.5<1.0 uM),A (Fold activation >200%),O=C(Nc1cccc(OC[C@@H](O)CO)c1)c1cccc2[nH]c(-c3cc(F)ccc3C(F)F)nc12 [Compound 720]
A (EC1.5<1.0 uM),A (Fold activation >200%),O=C(Nc1cccc(OC[C@H](O)CO)c1)c1cccc2[nH]c(-c3ccccc3C(F)F)nc12 [Compound 721]
A (EC1.5<1.0 uM),A (Fold activation >200%),O=C(Nc1nccs1)c1cccc2[nH]c(-c3ccc(OCCN4CCOCC4)cc3C(F)F)nc12 [Compound 722]
A (EC1.5<1.0 uM),A (Fold activation >200%),"O=C(Nc1ccccn1)c1cccc2[nH]c(-c3ccc(OCCN4CCOCC4)cc3C(F)F)nc12 [Compound 723, 2-(2-(difluoromethyl)-4-(2-morpholinoethoxy)phenyl)-N-(pyridin-2-yl)-1H-benzo[d]imidazole-7-carboxamide]"
A (EC1.5<1.0 uM),A (Fold activation >200%),O=C(Nc1cccnc1)c1cccc2[nH]c(-c3ccc(OCCN4CCOCC4)cc3C(F)F)nc12 [Compound 724]
A (EC1.5<1.0 uM),A (Fold activation >200%),"O=C(Nc1cccc(OC[C@@H](O)CO)c1)c1cccc2[nH]c(-c3ccccc3C(F)(F)F)nc12 [Compound 725, (S)-N-(3-(2,3-dihydroxypropoxy)phenyl)-2-(2-(trifluoromethyl)phenyl)-1H-benzo[d]imidazole-4-carboxamide]"
B (EC1.5 1-25 uM),A (Fold activation >200%),O=C(Nc1ccccc1OCC(O)CO)c1cccc2[nH]c(-c3ccc(Cl)cc3C(F)(F)F)nc12 (centres unmarked) [Compound 726]
B (EC1.5 1-25 uM),A (Fold activation >200%),O=C(Nc1ccccc1OCC(O)CO)c1cccc2[nH]c(-c3ccc(F)cc3C(F)(F)F)nc12 (centres unmarked) [Compound 727]
A (EC1.5<1.0 uM),A (Fold activation >200%),O=C(Nc1ccc(CN2CCNCC2)nc1)c1cccc2[nH]c(-c3ccccc3C(F)(F)F)nc12 [Compound 728]
